Data on 25 molecules can be found in patent US8053553B2, “Targeting host proteinases as a therapeutic strategy against viral and bacterial pathogens” (Socpra Sciences Sante Et Humaines, priority 2007, dated 2011).

The structures appear in SMILES notation. Non-standard residues stand in square brackets, D forms with d. Residues, ends and D or L forms follow the SMILES beside them. Sar = CNCC(=O)O Some results are limits rather than exact numbers.

The target in one test is T1, furin (Homo sapiens, UniProt P09958).
T1 construct: made in house; host or cells: Drosophila S2 cells (Invitrogen expression system)
T1 sequence (P09958 108-794 limits assumed): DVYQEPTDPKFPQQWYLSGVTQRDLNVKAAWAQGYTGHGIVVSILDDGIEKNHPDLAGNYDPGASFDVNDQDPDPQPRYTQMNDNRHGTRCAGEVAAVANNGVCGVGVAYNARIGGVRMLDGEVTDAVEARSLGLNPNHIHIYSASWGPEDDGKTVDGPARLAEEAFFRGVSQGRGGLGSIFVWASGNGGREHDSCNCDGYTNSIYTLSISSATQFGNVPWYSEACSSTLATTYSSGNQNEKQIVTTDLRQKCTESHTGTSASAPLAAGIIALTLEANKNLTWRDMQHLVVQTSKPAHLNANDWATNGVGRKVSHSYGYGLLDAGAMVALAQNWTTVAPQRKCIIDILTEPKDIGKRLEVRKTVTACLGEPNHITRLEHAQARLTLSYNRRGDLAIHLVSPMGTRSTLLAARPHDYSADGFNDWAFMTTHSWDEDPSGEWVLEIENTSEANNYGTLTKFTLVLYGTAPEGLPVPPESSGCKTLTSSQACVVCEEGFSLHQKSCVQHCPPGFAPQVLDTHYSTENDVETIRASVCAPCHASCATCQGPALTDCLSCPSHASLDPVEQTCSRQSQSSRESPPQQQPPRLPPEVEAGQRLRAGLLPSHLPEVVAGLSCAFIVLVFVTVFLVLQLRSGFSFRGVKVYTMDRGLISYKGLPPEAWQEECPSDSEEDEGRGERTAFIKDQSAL
The test is described as follows: biochemical. As to conditions: furin, Pyr-RTKR-AMC substrate; alanine scanning mutagenesis of the H5 furin cleavage sequence (Table 2); read-out: Ki.
One may read the Ki as the equilibrium dissociation constant of an inhibitor or competing ligand from its target. As for `CC(C)[C@H](NC(=O)[C@H](CCCNC(=N)N)NC(=O)[C@H](CCCCN)NC(=O)[C@H](CCCCN)NC(=O)[C@H](CCCNC(=N)N)NC(=O)[C@H](CCCNC(=N)N)NC(=O)[C@H](CCCNC(=N)N)NC(=O)[C@H](CCC(=O)O)NC(=O)[C@H](CCCNC(=N)N)NC(=O)[C@H](C)NC(=O)[C@H](C)N)C(N)=O` (H-AARERRRKKRV-NH2), the Ki is > 100 nM.

For the molecule `C[C@H](N)C(=O)N1CCC[C@H]1C(=O)N[C@@H](CCCNC(=N)N)C(=O)N[C@@H](CCC(=O)O)C(=O)N[C@@H](CCCNC(=N)N)C(=O)N[C@@H](CCCNC(=N)N)C(=O)N[C@@H](CCCNC(=N)N)C(=O)N[C@@H](CCCCN)C(=O)N[C@@H](CCCCN)C(=O)N[C@@H](CCCNC(=N)N)C(N)=O` (H-APRERRRKKR-NH2), the Ki was > 100 nM. In the case of `C[C@H](N)C(=O)N1CCC[C@H]1C(=O)N[C@@H](CCCNC(=N)N)C(=O)N[C@@H](CCC(=O)O)C(=O)N[C@@H](CCCNC(=N)N)C(=O)N[C@@H](CCCNC(=N)N)C(=O)N[C@@H](CCCNC(=N)N)C(=O)N[C@@H](CCCCN)C(=O)N[C@@H](CCCCN)C(=O)N[C@@H](CCCNC(=N)N)C(=O)NCC(N)=O` (H-APRERRRKKRG-NH2), the Ki is > 100 nM. Regarding `CC(C)[C@H](NC(=O)[C@H](CCCNC(=N)N)NC(=O)[C@H](CCCCN)NC(=O)[C@H](CCCCN)NC(=O)[C@H](CCCNC(=N)N)NC(=O)[C@H](CCCNC(=N)N)NC(=O)[C@H](CCCNC(=N)N)NC(=O)[C@H](CCC(=O)O)NC(=O)[C@H](CCCNC(=N)N)NC(=O)[C@@H]1CCCN1C(=O)[C@H](C)N)C(N)=O` (H-APRERRRKKRV-NH2), the Ki is > 100 nM. The same measure, in the same setting: next, `C[C@H](NC(=O)[C@H](C)NC(=O)[C@@H](N)[C@@H](C)O)C(=O)N[C@@H](CCC(=O)O)C(=O)N[C@@H](CCCNC(=N)N)C(=O)N[C@@H](CCCNC(=N)N)C(=O)N[C@@H](CCCNC(=N)N)C(=O)N[C@@H](CCCCN)C(=O)N[C@@H](CCCCN)C(=O)N[C@@H](CCCNC(=N)N)C(N)=O` (H-TAAERRRKKR-NH2): > 100 nM; `C[C@H](NC(=O)[C@H](C)NC(=O)[C@@H](N)[C@@H](C)O)C(=O)N[C@@H](CCC(=O)O)C(=O)N[C@@H](CCCNC(=N)N)C(=O)N[C@@H](CCCNC(=N)N)C(=O)N[C@@H](CCCNC(=N)N)C(=O)N[C@@H](CCCCN)C(=O)N[C@@H](CCCCN)C(=O)N[C@@H](CCCNC(=N)N)C(=O)NCC(N)=O` (H-TAAERRRKKRG-NH2): > 100 nM. As to `CC(C)[C@H](NC(=O)[C@H](CCCNC(=N)N)NC(=O)[C@H](CCCCN)NC(=O)[C@H](CCCCN)NC(=O)[C@H](CCCNC(=N)N)NC(=O)[C@H](CCCNC(=N)N)NC(=O)[C@H](CCCNC(=N)N)NC(=O)[C@H](CCC(=O)O)NC(=O)[C@H](C)NC(=O)[C@H](C)NC(=O)[C@@H](N)[C@@H](C)O)C(N)=O` (H-TAAERRRKKRV-NH2), the inhibitory constant (Ki) was > 100 nM.

In the case of `C[C@H](NC(=O)[C@H](C)NC(=O)[C@@H](N)[C@@H](C)O)C(=O)N[C@@H](CCC(=O)O)C(=O)N[C@@H](CCCNC(=N)N)C(=O)N[C@@H](CCCNC(=N)N)C(=O)N[C@@H](CCCNC(=N)N)C(=O)N[C@@H](CCCCN)C(=O)N[C@@H](CCCCN)C(=O)N[C@@H](CCCNC(=N)N)C(=O)N(C)CC(N)=O` (H-TAAERRRKKR[Sar]-NH2), the inhibition constant (Ki) is > 100 nM. Turning to `C[C@H](NC(=O)[C@@H](N)[C@@H](C)O)C(=O)N[C@@H](CCCNC(=N)N)C(=O)N[C@@H](CCC(=O)O)C(=O)N[C@@H](CCCNC(=N)N)C(=O)N[C@@H](CCCNC(=N)N)C(=O)N[C@@H](CCCNC(=N)N)C(=O)N[C@@H](CCCCN)C(=O)N[C@@H](CCCCN)C(=O)N[C@@H](CCCNC(=N)N)C(N)=O` (H-TARERRRKKR-NH2), the Ki is > 100 nM. With `C[C@H](NC(=O)[C@@H](N)[C@@H](C)O)C(=O)N[C@@H](CCCNC(=N)N)C(=O)N[C@@H](CCC(=O)O)C(=O)N[C@@H](CCCNC(=N)N)C(=O)N[C@@H](CCCNC(=N)N)C(=O)N[C@@H](CCCNC(=N)N)C(=O)N[C@@H](CCCCN)C(=O)N[C@@H](CCCCN)C(=O)N[C@@H](CCCNC(=N)N)C(=O)N[C@@H](CO)C(N)=O` (H-TARERRRKKRS-NH2), the Ki is > 100 nM.

Turning to `CC(C)[C@H](NC(=O)[C@H](CCCNC(=N)N)NC(=O)[C@H](CCCCN)NC(=O)[C@H](CCCCN)NC(=O)[C@H](CCCNC(=N)N)NC(=O)[C@H](CCCNC(=N)N)NC(=O)[C@H](CCCNC(=N)N)NC(=O)[C@H](CCC(=O)O)NC(=O)[C@H](CCCNC(=N)N)NC(=O)[C@H](C)NC(=O)[C@@H](N)[C@@H](C)O)C(N)=O` (H-TARERRRKKRV-NH2), the Ki was > 100 nM. As for `C[C@H](NC(=O)[C@H](C)NC(=O)[C@@H]1CCCN1C(=O)[C@@H](N)[C@@H](C)O)C(=O)N[C@@H](C)C(=O)N[C@@H](CCCNC(=N)N)C(=O)N[C@@H](CCCNC(=N)N)C(=O)N[C@@H](CCCCN)C(=O)N[C@@H](CCCCN)C(=O)N[C@@H](CCCNC(=N)N)C(N)=O` (H-TPAAARRKKR-NH2), the Ki was > 100 nM. Take `C[C@H](NC(=O)[C@H](C)NC(=O)[C@@H]1CCCN1C(=O)[C@@H](N)[C@@H](C)O)C(=O)N[C@@H](C)C(=O)N[C@@H](CCCNC(=N)N)C(=O)N[C@@H](CCCNC(=N)N)C(=O)N[C@@H](CCCCN)C(=O)N[C@@H](CCCCN)C(=O)N[C@@H](CCCNC(=N)N)C(=O)NCC(N)=O` (H-TPAAARRKKRG-NH2): the Ki is > 100 nM.

In the case of `CC(C)[C@H](NC(=O)[C@H](CCCNC(=N)N)NC(=O)[C@H](CCCCN)NC(=O)[C@H](CCCCN)NC(=O)[C@H](CCCNC(=N)N)NC(=O)[C@H](CCCNC(=N)N)NC(=O)[C@H](C)NC(=O)[C@H](C)NC(=O)[C@H](C)NC(=O)[C@@H]1CCCN1C(=O)[C@@H](N)[C@@H](C)O)C(N)=O` (H-TPAAARRKKRV-NH2), the Ki is > 100 nM. Consider `C[C@H](NC(=O)[C@H](C)NC(=O)[C@@H]1CCCN1C(=O)[C@@H](N)[C@@H](C)O)C(=O)N[C@@H](C)C(=O)N[C@@H](CCCNC(=N)N)C(=O)N[C@@H](CCCNC(=N)N)C(=O)N[C@@H](CCCCN)C(=O)N[C@@H](CCCCN)C(=O)N[C@@H](CCCNC(=N)N)C(=O)N(C)CC(N)=O` (H-TPAAARRKKR[Sar]-NH2), for which the inhibition constant Ki is > 100 nM.

Turning to `C[C@H](NC(=O)[C@H](C)NC(=O)[C@@H]1CCCN1C(=O)[C@@H](N)[C@@H](C)O)C(=O)N[C@@H](CCCNC(=N)N)C(=O)N[C@@H](CCCNC(=N)N)C(=O)N[C@@H](CCCNC(=N)N)C(=O)N[C@@H](CCCCN)C(=O)N[C@@H](CCCCN)C(=O)N[C@@H](CCCNC(=N)N)C(N)=O` (H-TPAARRRKKR-NH2), the Ki was > 100 nM.

On to `C[C@H](NC(=O)[C@H](C)NC(=O)[C@@H]1CCCN1C(=O)[C@@H](N)[C@@H](C)O)C(=O)N[C@@H](CCCNC(=N)N)C(=O)N[C@@H](CCCNC(=N)N)C(=O)N[C@@H](CCCNC(=N)N)C(=O)N[C@@H](CCCCN)C(=O)N[C@@H](CCCCN)C(=O)N[C@@H](CCCNC(=N)N)C(=O)NCC(N)=O` (H-TPAARRRKKRG-NH2), for which the Ki is > 100 nM. Consider `CC(C)[C@H](NC(=O)[C@H](CCCNC(=N)N)NC(=O)[C@H](CCCCN)NC(=O)[C@H](CCCCN)NC(=O)[C@H](CCCNC(=N)N)NC(=O)[C@H](CCCNC(=N)N)NC(=O)[C@H](CCCNC(=N)N)NC(=O)[C@H](C)NC(=O)[C@H](C)NC(=O)[C@@H]1CCCN1C(=O)[C@@H](N)[C@@H](C)O)C(N)=O` (H-TPAARRRKKRV-NH2), for which the Ki is > 100 nM. Regarding `C[C@H](NC(=O)[C@H](C)NC(=O)[C@@H]1CCCN1C(=O)[C@@H](N)[C@@H](C)O)C(=O)N[C@@H](CCCNC(=N)N)C(=O)N[C@@H](CCCNC(=N)N)C(=O)N[C@@H](CCCNC(=N)N)C(=O)N[C@@H](CCCCN)C(=O)N[C@@H](CCCCN)C(=O)N[C@@H](CCCNC(=N)N)C(=O)N(C)CC(N)=O` (H-TPAARRRKKR[Sar]-NH2), the Ki is > 100 nM.

Consider `C[C@H](NC(=O)[C@@H]1CCCN1C(=O)[C@@H](N)[C@@H](C)O)C(=O)N[C@@H](CCC(=O)O)C(=O)N[C@@H](CCCNC(=N)N)C(=O)N[C@@H](CCCNC(=N)N)C(=O)N[C@@H](CCCNC(=N)N)C(=O)N[C@@H](CCCCN)C(=O)N[C@@H](CCCCN)C(=O)N[C@@H](CCCNC(=N)N)C(N)=O` (H-TPAERRRKKR-NH2), for which the Ki was > 100 nM. As for `CC(C)[C@H](NC(=O)[C@H](CCCNC(=N)N)NC(=O)[C@H](CCCCN)NC(=O)[C@H](CCCCN)NC(=O)[C@H](CCCNC(=N)N)NC(=O)[C@H](CCCNC(=N)N)NC(=O)[C@H](CCCNC(=N)N)NC(=O)[C@H](CCC(=O)O)NC(=O)[C@H](C)NC(=O)[C@@H]1CCCN1C(=O)[C@@H](N)[C@@H](C)O)C(N)=O` (H-TPAERRRKKRV-NH2), the inhibitory constant (Ki) was > 100 nM. Consider `C[C@H](NC(=O)[C@@H]1CCCN1C(=O)[C@@H](N)[C@@H](C)O)C(=O)N[C@@H](CCC(=O)O)C(=O)N[C@@H](CCCNC(=N)N)C(=O)N[C@@H](CCCNC(=N)N)C(=O)N[C@@H](CCCNC(=N)N)C(=O)N[C@@H](CCCCN)C(=O)N[C@@H](CCCCN)C(=O)N[C@@H](CCCNC(=N)N)C(=O)N(C)CC(N)=O` (H-TPAERRRKKR[Sar]-NH2), for which the inhibition constant Ki was > 100 nM.

The same test, now with this note: furin, Pyr-RTKR-AMC substrate; optimization of the inhibitory peptides (Table 3); read-out: Ki.
For `CSC[C@H](NC(=O)[C@H](CCCNC(=N)N)NC(=O)[C@H](CCCCN)NC(=O)[C@H](CCCCN)NC(=O)[C@H](CCCNC(=N)N)NC(=O)[C@H](CCCNC(=N)N)NC(=O)[C@H](CCCNC(=N)N)NC(=O)[C@H](C)NC(=O)[C@H](CCCNC(=N)N)NC(=O)[C@H](CCC(N)=O)NC(=O)[C@@H]1CCCN1C(=O)[C@@H](N)[C@@H](C)O)C(N)=O` (H-TPQRARRRKKRC(Me)-NH2), the Ki turned out to be 93 nM. `C[C@H](NC(=O)[C@H](CCCNC(=N)N)NC(=O)[C@H](CCC(N)=O)NC(=O)[C@@H]1CCCN1C(=O)[C@@H](N)[C@@H](C)O)C(=O)N[C@@H](CCCNC(=N)N)C(=O)N[C@@H](CCCNC(=N)N)C(=O)N[C@@H](CCCNC(=N)N)C(=O)N[C@@H](CCCCN)C(=O)N[C@@H](CCCCN)C(=O)N[C@@H](CCCNC(=N)N)C(=O)N[C@@H](CS)C(N)=O` (H-TPQRARRRKKRC-NH2): the Ki was > 100 nM. Consider `C[C@H](NC(=O)[C@H](CCCNC(=N)N)NC(=O)[C@H](CCC(N)=O)NC(=O)[C@@H]1CCCN1C(=O)[C@@H](N)[C@@H](C)O)C(=O)N[C@@H](CCCNC(=N)N)C(=O)N[C@@H](CCCNC(=N)N)C(=O)N[C@@H](CCCNC(=N)N)C(=O)N[C@@H](CCCCN)C(=O)N[C@@H](CCCCN)C(=O)N[C@@H](CCCNC(=N)N)C(=O)N[C@@H](CC(=O)O)C(N)=O` (H-TPQRARRRKKRD-NH2), for which the inhibition constant Ki stood at 50 nM.
